# Where “and” joins values, the source holds several entries; their conditions need not be identical. Identical values can stand only once. Inconclusive results and toxic doses are left out.
# System: B6C3F1 mice, B16 melanoma ip, median survival T/C
# Assay: NCI In Vivo Anticancer Drug Screen. Data for tumor model B16 Melanoma (intraperitoneal) in B6C3F1 mice
# Conditions: endpoint: median survival time, higher = longer survival
# Summary of the method: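 Values are T/C ratios: the measurement in treated animals divided by that in vehicle-treated controls, using survival or tumor size in mice carrying transplantable tumors.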
# [1] = dose: 400.0 mg/kg/injection, schedule: Q01DX009 (ip), vehicle: Klucel (hydroxypropylcellulose) (HPC)
# [2] = dose: 12.5 mg/kg/injection, schedule: Q01DX009 (ip), vehicle: saline
# [3] = dose: 25.0 mg/kg/injection, schedule: Q01DX009 (ip), vehicle: saline
# [4] = dose: 50.0 mg/kg/injection, schedule: Q01DX009 (ip), vehicle: saline
# [5] = dose: 100.0 mg/kg/injection, schedule: Q01DX009 (ip), vehicle: saline
# [6] = dose: 200.0 mg/kg/injection, schedule: Q01DX009 (ip), vehicle: saline
# [7] = dose: 400.0 mg/kg/injection, schedule: Q01DX009 (ip), vehicle: saline
# [8] = dose: 100.0 mg/kg/injection, schedule: Q01DX009 (ip), vehicle: saline with Tween-80
# [9] = dose: 200.0 mg/kg/injection, schedule: Q01DX009 (ip), vehicle: saline with Tween-80
structure (smiles),measurement,setting,value
CC(NC(=O)C(Cc1cnc[nH]1)NC(=O)OCc1ccccc1)C(=O)O (configuration not stated),T/C,"dose: 100.0 mg/kg/injection, schedule: Q01DX009 (ip), vehicle: Klucel (hydroxypropylcellulose) (HPC)",98 % of control
same,T/C,"dose: 200.0 mg/kg/injection, schedule: Q01DX009 (ip), vehicle: Klucel (hydroxypropylcellulose) (HPC)",104 % of control
same,T/C,[1],98 % of control
CC1OC2CC(O)C1(O)C1=C2C(O)=C(C(N)=O)C(=N)C1=O (configuration not stated),T/C,"dose: 0.31 mg/kg/injection, schedule: Q01DX009 (ip), vehicle: saline",106 % of control
same,T/C,"dose: 0.62 mg/kg/injection, schedule: Q01DX009 (ip), vehicle: saline",98 % of control
same,T/C,"dose: 1.25 mg/kg/injection, schedule: Q01DX009 (ip), vehicle: saline",104 % of control
same,T/C,"dose: 2.5 mg/kg/injection, schedule: Q01DX009 (ip), vehicle: saline",98 % of control
same,T/C,"dose: 5.0 mg/kg/injection, schedule: Q01DX009 (ip), vehicle: saline",102 % of control
Cc1nnc2ncccn12,T/C,[2],97 % of control and 106 % of control
same,T/C,[3],96 % of control and 103 % of control
same,T/C,[4],98 % of control and 100 % of control
same,T/C,[5],97 % of control and 103 % of control
same,T/C,[6],94 % of control and 97 % of control
same,T/C,[7],90 % of control and 102 % of control
C[C@@H]1C[C@@H]([C@H](O)CC2CC(=O)NC(=O)C2)C(=O)[C@@H](C)C1,T/C,[2],105 % of control
same,T/C,[3],111 % of control
same,T/C,[4],106 % of control
S=C1CCCCN1,T/C,"dose: 25.0 mg/kg/injection, schedule: Q01DX009 (ip), vehicle: distilled water + alcohol",107 % of control
same,T/C,"dose: 50.0 mg/kg/injection, schedule: Q01DX009 (ip), vehicle: distilled water + alcohol",98 % of control
same,T/C,"dose: 100.0 mg/kg/injection, schedule: Q01DX009 (ip), vehicle: distilled water + alcohol",107 % of control
same,T/C,"dose: 200.0 mg/kg/injection, schedule: Q01DX009 (ip), vehicle: distilled water + alcohol",101 % of control
CCCC(=O)c1ccco1,T/C,"dose: 12.5 mg/kg/injection, schedule: Q01DX009 (ip), vehicle: saline with Tween-80",98 % of control
same,T/C,"dose: 25.0 mg/kg/injection, schedule: Q01DX009 (ip), vehicle: saline with Tween-80",109 % of control
same,T/C,"dose: 50.0 mg/kg/injection, schedule: Q01DX009 (ip), vehicle: saline with Tween-80",100 % of control
Nc1cc(Cl)c(N=Nc2ccccc2)c(N)n1,T/C,[8],89 % of control
same,T/C,[9],90 % of control
COc1cc(NS(C)(=O)=O)ccc1Nc1c2ccc(Cl)cc2nc2c(OC)cccc12,T/C,"dose: 2.0 mg/kg/injection, schedule: Q01DX005 (ip), vehicle: water",165 % of control
same,T/C,"dose: 2.0 mg/kg/injection, schedule: Q01DX005 (iv), vehicle: water",111 % of control
same,T/C,"dose: 4.0 mg/kg/injection, schedule: Q01DX001 (iv), vehicle: water",101 % of control
same,T/C,"dose: 4.0 mg/kg/injection, schedule: Q01DX005 (ip), vehicle: water",174 % of control
same,T/C,"dose: 8.0 mg/kg/injection, schedule: Q01DX001 (iv), vehicle: water",102 % of control
same,T/C,"dose: 8.0 mg/kg/injection, schedule: Q01DX005 (ip), vehicle: water",178 % of control
same,T/C,"dose: 16.0 mg/kg/injection, schedule: Q01DX001 (iv), vehicle: water",100 % of control
CN(C)CC(O)c1cc2ccccc2c2ccccc12 (configuration not stated),T/C,[2],103 % of control
same,T/C,[3],103 % of control
C=C1C(=O)OC2/C=C(\CO)C(OC(C)=O)CC(O)/C(C)=C/C(OC(=O)C(C)CC)C12 (configuration not stated),T/C,"dose: 0.2 mg/kg/injection, schedule: Q01DX009 (ip), vehicle: Klucel (hydroxypropylcellulose) (HPC)",96 % of control
same,T/C,"dose: 0.39 mg/kg/injection, schedule: Q01DX009 (ip), vehicle: Klucel (hydroxypropylcellulose) (HPC)",103 % of control
same,T/C,"dose: 0.78 mg/kg/injection, schedule: Q01DX009 (ip), vehicle: Klucel (hydroxypropylcellulose) (HPC)",89 % of control and 103 % of control
same,T/C,"dose: 1.56 mg/kg/injection, schedule: Q01DX009 (ip), vehicle: Klucel (hydroxypropylcellulose) (HPC)",110 % of control and 100 % of control
O=C(O)C(Cc1ccc(O)cc1)NS(=O)(=O)Cc1ccccc1 (configuration not stated),T/C,[8],106 % of control
same,T/C,[9],101 % of control
same,T/C,"dose: 400.0 mg/kg/injection, schedule: Q01DX009 (ip), vehicle: saline with Tween-80",100 % of control
O=C(O)/C=C/C(=O)Nc1ccc(Cl)c(Cl)c1,T/C,"dose: 6.25 mg/kg/injection, schedule: Q01DX009 (ip), vehicle: Klucel (hydroxypropylcellulose) (HPC)",112 % of control
same,T/C,[1],110 % of control
Nc1ccc(OC(=O)Oc2ccc(N)cc2)cc1,T/C,[5],113 % of control
same,T/C,[6],104 % of control
same,T/C,[7],98 % of control
